The text below walks through data of patent publication US20040142821A1, “Pesticide composition comprising malononitrile compounds” (priority 2001, published 2004).

The subject of one experiment is Musca domestics. As to the kind of experiment: Pesticidal test against Musca domestics, treated filter paper with sucrose bait (Test Example 5). It counts as in vivo. Conditions: 500 ppm test liquid (Formulation Example 5), 0.7 ml on filter paper, ten female adults, after 24 hours. As to the method:
Ten female adults of Musca domestics (house fly) were set free in the polyethylene cup, which was then kept covered. After 24 hours, their survival was examined to determine the mortality.

A further experiment has as its system German cockroach. As to the kind of experiment: Pesticidal test against German cockroach, treated filter paper with sucrose bait (Test Example 6). It counts as in vivo. Conditions: Blattella germanica, 144 h; 500 ppm test liquid (Formulation Example 5), 0.7 ml on filter paper; two male adults; after 6 days. The source says: Two male adults of German cockroach (Blattalla germanica) were set free in the polyethylene cup, which was then kept covered. After 6 days, their survival was examined to determine the mortality.

A further experiment relates to Cullex pipiens pallens. As to the kind of experiment: whole plant or invertebrate. Conditions: 24 h.

Protocol for Cullex pipiens pallens: In 100 ml of ion-exchanged water, the test liquid had been prepared as described above, was added dropwise in an amount of 0.7 ml (the concentration of active ingredient was 3.5 ppm). Twenty final-instar larvae of Cullex pipiens pallens (common mosquito) were set free in the solution. After 1 days, their survival was examined to determine the mortality.

In the case of `C=CCCC(C#N)(C#N)Cc1ccc(OC(F)(F)F)cc1` [Compound 15, 2-(3-butenyl)-2-(4-(trifluoromethoxy)benzyl)malononitrile], the mortality at 500 ppm in the experiment with Musca domestics and with German cockroach was 100% in each case. In the experiment with Cullex pipiens pallens, the mortality (in general, the percentage killed) at 3.5 µg/mL worked out at 100%.
As to `C=CCC(C#N)(C#N)Cc1cccc(Cl)c1` [Compound 17, 2-allyl-2-(3-chlorobenzyl)malononitrile], the mortality at 500 ppm with Musca domestics and in the experiment on German cockroach was 100% in each case. For the same compound, the mortality at 3.5 µg/mL in the experiment on Cullex pipiens pallens came to 100%.
Regarding `C=CCC(C#N)(C#N)C(C)c1ccc(OC(F)(F)F)cc1` (stereo not shown) [Compound 30, 2-allyl-2-(1-(4-(trifluoromethoxy)phenyl)ethyl)malononitrile], the mortality at 500 ppm in the experiment on Musca domestics and in the experiment with German cockroach was 100% each time. In the experiment with Cullex pipiens pallens, the mortality at 3.5 µg/mL was determined as 100%.
Take `C=CCC(C#N)(C#N)C(CCl)c1ccc(OC(F)(F)F)cc1` (stereo not shown) [Compound 31, 2-allyl-2-(1-(4-(trifluoromethoxy)phenyl)-2-chloroethyl)malononitrile]: the mortality at 500 ppm in the experiment on Musca domestics and in the experiment on German cockroach was 100% throughout. Further, the mortality at 3.5 µg/mL in the experiment with Cullex pipiens pallens was 100%.
Consider `C=CCCC(C#N)(C#N)C(C=C)c1ccc(OC(F)(F)F)cc1` (stereo not shown) [Compound 32, 2-(3-butenyl)-2-(1-(4-(trifluoromethoxy)phenyl)-2-propenyl)malononitrile], for which the mortality at 500 ppm in the experiment on Musca domestics and in the experiment with German cockroach was 100% each time. For the same compound, the mortality at 3.5 µg/mL in the experiment on Cullex pipiens pallens worked out at 100%.
As to `C=CCC(C#N)(C#N)C(C=C)c1ccc(OC(F)(F)F)cc1` (stereo not shown) [Compound 33, 2-allyl-2-(1-(4-(trifluoromethoxy)phenyl)-2-propenyl)malononitrile], the mortality at 500 ppm in the experiment on Musca domestics and in the experiment on German cockroach was 100% each time. The compound further yielded a mortality at 3.5 µg/mL in the experiment with Cullex pipiens pallens of 100%.
`C=CCCC(C#N)(C#N)Cc1ccc(OC(F)F)cc1` [Compound 36, 2-(3-butenyl)-2-(4-(difluoromethoxy)benzyl)malononitrile]: the mortality at 500 ppm in the experiment on Musca domestics and in the experiment on German cockroach was 100% each time. In addition, the mortality at 3.5 µg/mL in the experiment with Cullex pipiens pallens was found to be 100%.
Regarding `C=CCC(C#N)(C#N)C(OC)c1ccc(OC(F)(F)F)cc1` (stereo not drawn) [Compound 39, 2-allyl-2-(4-(trifluoromethoxy)-α-methoxybenzyl)malononitrile], the mortality at 500 ppm in the experiment on Musca domestics and with German cockroach was 100% throughout. The compound further registered a mortality at 3.5 µg/mL in the experiment on Cullex pipiens pallens of 100%.
Regarding `C=CCC(C#N)(C#N)Cc1ccc(SC(F)(F)F)cc1` [Compound 41, 2-allyl-2-(4-(trifluoromethylthio)benzyl)malononitrile], the mortality at 500 ppm in the experiment on Musca domestics and in the experiment on German cockroach was 100% in each case. This compound also showed a mortality at 3.5 µg/mL in the experiment on Cullex pipiens pallens of 100%.
Regarding `C=CCCC(C#N)(C#N)Cc1ccc(SC(F)(F)F)cc1` [Compound 42, 2-(3-butenyl)-2-(4-(trifluoromethylthio)benzyl)malononitrile], the mortality at 500 ppm in the experiment with Musca domestics and with German cockroach was 100% throughout. The same compound gave a mortality at 3.5 µg/mL in the experiment on Cullex pipiens pallens of 100%.
Regarding `C=CCC(C#N)(C#N)C(OC)c1ccc(SC(F)(F)F)cc1` (stereo not drawn) [Compound 43, 2-allyl-2-(4-(trifluoromethylthio)-α-methoxybenzyl)malononitrile], the mortality at 500 ppm in the experiment on Musca domestics and in the experiment with German cockroach was 100% in each case. In the experiment with Cullex pipiens pallens, this compound registered a mortality at 3.5 µg/mL of 100%.
With `CC=CCC(C#N)(C#N)Cc1ccc(SC(F)(F)F)cc1` [Compound 46, 2-(2-butenyl)-2-(4-(trifluoromethylthio)benzyl)malononitrile], the mortality at 500 ppm in the experiment with Musca domestics and in the experiment on German cockroach was 100% in each case. Also, the mortality at 3.5 µg/mL in the experiment on Cullex pipiens pallens turned out to be 100%.
Consider `C=CC(C)C(C#N)(C#N)Cc1ccc(SC(F)(F)F)cc1` (stereo not shown) [Compound 47, 2-(1-methyl-2-propenyl)-2-(4-(trifluoromethylthio)benzyl)malononitrile], for which the mortality at 500 ppm in the experiment with Musca domestics and in the experiment on German cockroach was 100% throughout. In addition, the mortality at 3.5 µg/mL with Cullex pipiens pallens amounted to 100%.
For the compound `C=CCCC(C#N)(C#N)Cc1ccc(C(F)(F)F)cc1` [Compound 52, 2-(3-butenyl)-2-(4-(trifluoromethyl)benzyl)malononitrile], the mortality at 500 ppm in the experiment on Musca domestics and in the experiment with German cockroach was 100% each time. For the same compound, the mortality at 3.5 µg/mL in the experiment on Cullex pipiens pallens was found to be 100%.
In the case of `C=CCC(C#N)(C#N)C(C#N)c1ccc(OC(F)(F)F)cc1` (stereo not drawn) [Compound 55, 2-allyl-2-(4-(trifluoromethoxy)-α-cyanobenzyl)malononitrile], the mortality at 500 ppm in the experiment with Musca domestics and in the experiment on German cockroach was 100% throughout. For the same compound, the mortality at 3.5 µg/mL in the experiment on Cullex pipiens pallens was 100%.
Consider `C=CCC(C#N)(C#N)C(C#N)c1ccc(SC(F)(F)F)cc1` (stereo not drawn) [Compound 56, 2-allyl-2-(4-(trifluoromethylthio)-α-cyanobenzyl)malononitrile], for which the mortality at 500 ppm in the experiment on Musca domestics and with German cockroach was 100% throughout. Moreover, in the experiment on Cullex pipiens pallens, the mortality at 3.5 µg/mL stood at 100%.
For `C=CCC(C#N)(C#N)Cc1ccc(C(F)(F)F)cc1C(F)(F)F` [Compound 57, 2-allyl-2-(2,4-bis(trifluoromethyl)benzyl)malononitrile], the mortality at 500 ppm in the experiment on Musca domestics and with German cockroach was 100% each time. For the same compound, in the experiment on Cullex pipiens pallens, the mortality at 3.5 µg/mL stood at 100%.
As for `C=CCC(C#N)(C#N)Cc1ccc(C(F)(F)F)cc1Cl` [Compound 58, 2-allyl-2-(2-chloro-4-(trifluoromethyl)benzyl)malononitrile], the mortality at 500 ppm in the experiment on Musca domestics and in the experiment with German cockroach was 100% in each case. In the experiment on Cullex pipiens pallens, this compound registered a mortality at 3.5 µg/mL of 100%.
As to `CC#CCC(C#N)(C#N)Cc1ccc(OC(F)(F)F)cc1` [Compound 59, 2-(2-butynyl)-2-(4-(trifluoromethoxy)benzyl)malononitrile], the mortality at 500 ppm with Musca domestics and with German cockroach was 100% throughout. In the experiment with Cullex pipiens pallens, this compound yielded a mortality at 3.5 µg/mL of 100%.
On to `C=CCCC(C#N)(C#N)Cc1ccc(C(F)(F)F)cc1Cl` [Compound 60, 2-(3-butenyl)-2-(2-chloro-4-(trifluoromethyl)benzyl)malononitrile], for which the mortality at 500 ppm in the experiment with Musca domestics and in the experiment with German cockroach was 100% each time. Also, the mortality at 3.5 µg/mL with Cullex pipiens pallens came to 100%.
With `C=CCC(C#N)(C#N)Cc1c(Cl)cc(C(F)(F)F)cc1Cl` [Compound 64, 2-allyl-2-(2,6-dichloro-4-(trifluoromethyl)benzyl)malononitrile], the mortality at 500 ppm in the experiment on Musca domestics and in the experiment with German cockroach was 100% in each case. In the experiment with Cullex pipiens pallens, this compound came in with a mortality at 3.5 µg/mL of 100%.
As to `CC(C#N)(C#N)Cc1ccc(Cl)cc1` [Compound 68, 2-(4-chlorobenzyl)-2-methylmalononitrile], the mortality at 500 ppm in the experiment on Musca domestics and with German cockroach was 100% each time. The same compound showed a mortality at 3.5 µg/mL in the experiment with Cullex pipiens pallens of 100%.
As for `C=CCC(C#N)(C#N)Cc1ccc(C(F)(F)F)c(F)c1` [Compound 69, 2-allyl-2-(3-fluoro-4-(trifluoromethyl)benzyl)malononitrile], the mortality at 500 ppm with Musca domestics and in the experiment on German cockroach was 100% in each case. For the same compound, the mortality at 3.5 µg/mL in the experiment with Cullex pipiens pallens worked out at 100%.
Turning to `C=CCCCC(C#N)(C#N)Cc1ccc(C(F)(F)F)cc1` [Compound 79, 2-(4-pentenyl)-2-(4-(trifluoromethyl)benzyl)malononitrile], the mortality at 500 ppm in the experiment with Musca domestics and in the experiment on German cockroach was 100% throughout. This compound also yielded a mortality at 3.5 µg/mL in the experiment on Cullex pipiens pallens of 100%.
For the compound `C=CCC(C#N)(C#N)C(OC)c1ccc(Cl)cc1` (stereo not drawn) [Compound 84, 2-allyl-2-(4-chloro-α-methoxybenzyl)malononitrile], the mortality at 500 ppm with Musca domestics and in the experiment with German cockroach was 100% each time. Also, the mortality at 3.5 µg/mL with Cullex pipiens pallens stood at 100%.
With `C=CCC(C#N)(C#N)Cc1cccc(OC(F)(F)F)c1` [Compound 89, 2-allyl-2-(3-(trifluoromethoxy)benzyl)malononitrile], the mortality at 500 ppm with Musca domestics and in the experiment with German cockroach was 100% in each case. Moreover, the mortality at 3.5 µg/mL with Cullex pipiens pallens is 100%.
As for `C=CCC(C#N)(C#N)Cc1ccc(C(C)C)cc1` [Compound 102, 2-allyl-2-(4-isopropylbenzyl)malononitrile], the mortality at 500 ppm with Musca domestics and in the experiment with German cockroach was 100% each time. Further, the mortality at 3.5 µg/mL with Cullex pipiens pallens amounted to 100%.
For `CCCCC(C#N)(C#N)Cc1ccc(C(F)(F)F)cc1` [Compound 109, 2-butyl-2-(4-(trifluoromethyl)benzyl)malononitrile], the mortality at 500 ppm in the experiment on Musca domestics and in the experiment with German cockroach was 100% throughout. This compound showed a mortality at 3.5 µg/mL with Cullex pipiens pallens of 100%.
In the case of `CC(C)CC(C#N)(C#N)Cc1ccc(C(F)(F)F)cc1` [Compound 110, 2-(2-methylpropyl)-2-(4-(trifluoromethyl)benzyl)malononitrile], the mortality at 500 ppm in the experiment on Musca domestics and in the experiment on German cockroach was 100% in each case. Besides, the mortality at 3.5 µg/mL in the experiment with Cullex pipiens pallens came to 100%.
Regarding `C=CCC(C#N)(C#N)Cc1cccc(F)c1F` [Compound 114, 2-allyl-2-(2,3-difluorobenzyl)malononitrile], the mortality at 500 ppm in the experiment on Musca domestics and with German cockroach was 100% in each case.
In turn, `C=CCC(C#N)(C#N)Cc1ccc(Oc2cccc(C)c2)cc1` [Compound 119, 2-allyl-2-(4-(m-tolyloxy)benzyl)malononitrile] yielded a mortality at 500 ppm in the experiment with German cockroach of 100%.
With `C=CCC(C#N)(C#N)Cc1c(F)cc(F)cc1F` [Compound 120, 2-allyl-2-(2,4,6-trifluorobenzyl)malononitrile], the mortality at 500 ppm in the experiment on Musca domestics and in the experiment on German cockroach was 100% in each case.
As for `C=CCC(C#N)(C#N)Cc1ccc(Oc2ccc(Cl)cc2)cc1` [Compound 121, 2-allyl-2-(4-(p-chlorophenoxy)benzyl)malononitrile], the mortality at 500 ppm in the experiment with German cockroach was found to be 100%. The same compound displayed a mortality at 3.5 µg/mL in the experiment with Cullex pipiens pallens of 100%.
